Measured values published in PMC11227536, “Modulation of the Meisenheimer complex metabolism of nitro-benzothiazinones by targeted C-6 substitution” (Communications Chemistry, 2024).
In brackets after ≈: the same amount, converted by molar mass.

Legend:
[1] = test system: K-562; test: Proliferation assay; type: cell-based; conditions: Homo sapiens, K562; 72 h, n = 4
Method: Supplementary Method 5: Biological Assays […]
(§1) 2. Proliferation and cytotoxicity assay
(§2) Cells and culture conditions
(§3) The following cell lines and media were used:
(§4) Cell line Cell culture medium
(§5) Cells were grown in the appropriate cell culture medium supplemented with 10 mL/L ultraglutamine 1 […]
(§6) heat inactivated fetal bovine serum (GIBCO Life Technologies 10270-106) at 37 °C in 5% CO 2 in high density polyethylene flasks (NUNC 156340).
(§7) To decide if the compounds have an antiproliferative and/or a cytotoxic effect on human cells, cell death and retardation of cell proliferation were assessed. Under our experimental conditions, the optical density measured from the CellTiter-Blue® reagent and methylene blue assay is proportional to the […]
The test substances were dissolved in DMSO and further diluted in the cell culture medium. The adherent cells were harvested at the logarithmic growth phase after soft trypsinization using 0.25% trypsin in PBS containing 0.02% EDTA (Biochrom KG L2163). For each experiment, approximately 10,000 cells were seeded with 0.1 mL culture medium per well of the 96-well microplates (HUVEC: flat bottomed NUNC 167008, K-562: round bottomed NUNC 163320). To test the antiproliferative […]
effect of test compounds on HUVEC and K-562, the cells were incubated for 72 hours in plates prepared with control and different dilutions of test substances. […]
of proliferation compared to the untreated control. […]
Cells were incubated with dilutions of the test substances in microplates for 72 hours at 37 °C in a humidified atmosphere and 5% CO 2. […]
cytotoxicity and the inhibition of cell proliferation. The number of viable cells was determined subsequent to staining with CellTiter-Blue® reagent or methylene blue.
K-562 cells: The influence of test substances on cell proliferation of K-562 was determined via the CellTiter-Blue® assay (PROMEGA). Briefly, viable cells are able to reduce the indicator dye resazurin […]
dye. Thus, formation of resorufin was followed by measuring absorption at 570 nm and subtracting absorption measured at 600 nm. […]
General remarks: Signals from the methylene blue and CellTiter-Blue® reagent are proportional to the number of viable cells. A repeat determination has been conducted in all experiments, four replicates were assayed. The calculations of the different values of GI 50 and CC 50 were performed with the software

[2] = test system: Mycobacterium vaccae (JMRC:STI:10670); test: MIC determination; type: cell-based; conditions: for MIC: Mycolicibacterium vaccae, n = 1; for Selectivity index: ratio between CC50 (HeLa) and MIC M. vaccae; for antimycobacterial activity (in words): M. vaccae
Method: Supplementary Method 5: Biological Assays
Minimal inhibitory concentrations were determined against Mycobacterium vaccae (JMRC:STI:10670) and Mycobacterium smegmatis (JMRC:STH:00056). M. vaccae and M. smegmatis cultures were grown 48 h at 32 °C in a medium consisting of glycerol (1%), beef extract (0.5%), peptone from casein (0.5%) and sodium chloride (0.3%). Serial dilutions of the DMSO test item solutions (1 mg∙mL -1) were prepared at 100 µL scale in 96 well plates in Mueller Hinton broth starting at 200 µg∙mL -1 (highest) to cover a final concentration range of 100 to 0.05 µg∙mL -1. Each plate was equipped with a series of DMSO and ciprofloxacin dilutions as quality controls. 96 well plates were inoculated with 100 µL diluted culture (Mueller Hinton bullion) at a final concentration of 5∙10 5 and incubated at 37 °C for 42 h. Growth/no growth was visually inspected.
as §1, §2, §3, §4, §5, §6, §7
The test substances were dissolved in DMSO and further diluted in the cell culture medium. The adherent cells were harvested at the logarithmic growth phase after soft trypsinization using 0.25% trypsin in PBS containing 0.02% EDTA (Biochrom KG L2163). For each experiment, approximately 10,000 cells were seeded with 0.1 mL culture medium per well of the 96-well microplates (HUVEC: flat bottomed NUNC 167008, K-562: round bottomed NUNC 163320). To test the antiproliferative

| Structure (SMILES) | GI50 [1] [µM] | MIC [2] [µM] | Selectivity index [2] | antimycobacterial activity (in words) [2] | MIC ([2]; 42 h) [µM] |
| --- | --- | --- | --- | --- | --- |
| COC(=O)c1cc([N+](=O)[O-])c2sc(N3CCC4(CC3)OC[C@H](C)O4)nc(=O)c2c1 [Compound 6a] | 66.9 ± 12.6 | 0.24 (≈ 0.101 µg/mL) | > 500 |  |  |
| CC(C)OC(=O)c1cc([N+](=O)[O-])c2sc(N3CCC4(CC3)OC[C@H](C)O4)nc(=O)c2c1 [Compound 6c] | > 111 | 0.22 (≈ 0.0989 µg/mL) | > 500 |  |  |
| C[C@H]1COC2(CCN(c3nc(=O)c4cc(C(=O)N(C)C)cc([N+](=O)[O-])c4s3)CC2)O1 [Compound 7c] | > 115 | 28.8 (≈ 12.5 µg/mL) | > 4 |  |  |
| CON(C)C(=O)c1cc([N+](=O)[O-])c2sc(N3CCC4(CC3)OC[C@H](C)O4)nc(=O)c2c1 [Compound 7f] | > 111 | 13.9 (≈ 6.26 µg/mL) | > 8 |  |  |
| C[C@H]1COC2(CCN(c3nc(=O)c4cc(C(=O)O)cc([N+](=O)[O-])c4s3)CC2)O1 [Compound 8] | > 123 | 0.98 (≈ 0.399 µg/mL) | > 125 | moderate activity |  |
| C[C@H]1COC2(CCN(c3nc(=O)c4cc(C#N)cc([N+](=O)[O-])c4s3)CC2)O1 [Compound 9] | 94.4 ± 5.9 | 0.016 (≈ 0.00621 µg/mL) | > 8062 | similarly active as BTZ-043 (1) |  |
| C[C@H]1COC2(CCN(c3nc(=O)c4cc(I)cc([N+](=O)[O-])c4s3)CC2)O1 [Compound 10] | > 102 | 0.006 (≈ 0.00294 µg/mL) | > 16114 | similarly active as BTZ-043 (1) |  |
| C[C@H]1COC2(CCN(c3nc(=O)c4cc(Br)cc([N+](=O)[O-])c4s3)CC2)O1 [Compound 11] | > 113 | 0.004 (≈ 0.00177 µg/mL) | > 31236 | similarly active as BTZ-043 (1) |  |
| C[C@H]1COC2(CCN(c3nc(=O)c4cccc([N+](=O)[O-])c4s3)CC2)O1 [Compound 23] | > 138 |  | > 125 | significantly lower activity than 1 | 1.1 (≈ 0.4 µg/mL) |
